According to US20030130180A1, “Utilization of an aminopeptidase inhibitor” (priority 2000, published 2003):

System: Karpas cells
Experiment: Detection of surface protein combinations of the protein network on untreated (V1) and actinonin-treated (V2) Karpas cells
Format: cell-based
Conditions: for V2 no. of cells In 1/1OOO / V2 No. of cells In 1/1000: actinonin-treated Karpas cells (V2)
From the text: Principally, detecting of the surface protein combinations may comprise procedural steps of an automated method for determining molecular classes, molecular groups or molecular parts in a solid or liquid object according to DE 197 09 348 C. In these steps, surface proteins may be examined and measured in one and the same object, i.e. in a sample of immune cells and/or tumor cells for example, by sequentially applying reagent solutions Yn (n=1,2,3, . . . N) by means of an automated apparatus, said procedural steps being: I. taking a first reagent solution Y1 from a vessel containing the reagent solution, II. applying said reagent solution Y1 to the object which is on an object slide, III. allowing the reagent solution to react for an automatically set period of time, IV. recording at least one individual labeling pattern of the object previously labeled with said first reagent solution Y1, V. repeating steps I-IV by applying said first reagent solution Y1 or a second reagent solution Y2 or a mixture of said first and second reagent solutions, and VI. repeating steps I to V with further reagent solutions Yn (n=2,3, . . . N) or a mixture thereof and whereby the labeling distribution patterns obtained in each cycle of the method are turned into a complex molecular combination pattern of the object to be examined by computer-aided image overlay. From this combination pattern, information may be gained on the presence of the above mentioned proteins, thus also allowing detection of the surface protein combinations, if the reagent solutions used contain labeled substances directed against the proteins in question. In numerous examinations, it was possible to identify the 30 cell surface proteins already listed above which belong to a specific protein network controlling the early polarization stages of tumor cells and immune cells. In a further examination, surface protein combinations of this protein network of Karpas cells were detected, both in untreated form and after treatment with the aminopeptidase inhibitor actinonin. For this purpose, two groups V1 and V2 of Karpas cells were formed, with the cells of group Vl remaining untreated, while the cells of group V2 were treated with actinonin. Table 2 lists those surface protein combinations which are present both in the actinonin-treated cells and in the untreated cells. However, this table and the further tables 3 and 4 only give examples of 18 of the 30 proteins, with the detected proteins being designated 1 and the non-detected proteins being designated 0. The proteins are continuously numbered 1 to 18, with the nomenclature being notable from table 1. [table] The cell numbers stated in tables 2 to 4 refer to each 1,000 cells examined in groups V1 and V2. Table 3 lists the surface protein combinations which only occur in the untreated Karpas cells and are never found in the actinonin-treated Karpas cells. The number of protein combinations listed in this table 3 amounts to 131. Finally, table 4 exclusively lists those surface protein combinations which occur exclusively in the actinonin-treated Karpas cells. It may be gathered from tables 2 to 4 that, if one examines merely 18 proteins of the 30 proteins, a total of 394 different surface protein combinations will occur, with a total of 334 different combinations occurring in the untreated cells and a total of 263 different combinations being detected in the treated cells.

CCCCC[C@H](CC(=O)NO)C(=O)N[C@H](C(=O)N1CCC[C@H]1CO)C(C)C [actinonin]
203: number of surface protein combinations present both in actinonin-treated and untreated cells (Table 2, 18 proteins)
specific blocking of cell polarization: effect of the modification of surface protein combinations on cell polarization (actinonin-treated Karpas cells)
60: number of surface protein combinations occurring exclusively in the actinonin-treated Karpas cells (Table 4, 18 proteins)
0.5 1/1OOO: V2 no. of cells In 1/1OOO (protein code No. 158, proteins 1-18 binary 100100000000001000) | V2 no. of cells In 1/1OOO (protein code No. 159, proteins 1-18 binary 010000011001000000) | V2 no. of cells In 1/1OOO (protein code No. 160, proteins 1-18 binary 001000010101011100) | V2 no. of cells In 1/1OOO (protein code No. 161, proteins 1-18 binary 000000011001001000)
0.3 1/1OOO: V2 no. of cells In 1/1OOO (protein code No. 155, proteins 1-18 binary 111000011100011100) | V2 no. of cells In 1/1OOO (protein code No. 156, proteins 1-18 binary 010000001101000000) | V2 no. of cells In 1/1OOO (protein code No. 157, proteins 1-18 binary 001000010001000100) | V2 no. of cells In 1/1OOO (protein code No. 173, proteins 1-18 binary 011100011100011100)
0.0 1/1000: V2 No. of cells In 1/1000 (surface protein combination No. 3, binary code proteins 1-18: 011100011101011100, untreated V1: 0.8) | V2 No. of cells In 1/1000 (surface protein combination No. 4, binary code proteins 1-18: 101000010011011000, untreated V1: 0.7) | V2 No. of cells In 1/1000 (surface protein combination No. 5, binary code proteins 1-18: 001000110101011000, untreated V1: 0.7) | V2 No. of cells In 1/1000 (surface protein combination No. 6, binary code proteins 1-18: 000100000000001100, untreated V1: 0.7) | V2 No. of cells In 1/1000 (surface protein combination No. 7, binary code proteins 1-18: 101000011111011000, untreated V1: 0.6) | V2 No. of cells In 1/1000 (surface protein combination No. 8, binary code proteins 1-18: 001000000010000000, untreated V1: 0.6) | V2 No. of cells In 1/1000 (surface protein combination No. 9, binary code proteins 1-18: 111100011101011100, untreated V1: 0.5) | V2 No. of cells In 1/1000 (surface protein combination No. 10, binary code proteins 1-18: 001100011101000000, untreated V1: 0.5) | V2 No. of cells In 1/1000 (surface protein combination No. 11, binary code proteins 1-18: 000000011111001000, untreated V1: 0.5) | V2 No. of cells In 1/1000 (surface protein combination No. 12, binary code proteins 1-18: 111000011101011100, untreated V1: 0.4) | V2 No. of cells In 1/1000 (surface protein combination No. 13, binary code proteins 1-18: 110000001100001000, untreated V1: 0.4) | V2 No. of cells In 1/1000 (surface protein combination No. 14, binary code proteins 1-18: 101100011111001000, untreated V1: 0.4) | V2 No. of cells In 1/1000 (surface protein combination No. 15, binary code proteins 1-18: 101000010001011000, untreated V1: 0.4) | V2 No. of cells In 1/1000 (surface protein combination No. 16, binary code proteins 1-18: 100100000100011000, untreated V1: 0.4) | V2 No. of cells In 1/1000 (surface protein combination No. 17, binary code proteins 1-18: 100100000001001100, untreated V1: 0.4) | V2 No. of cells In 1/1000 (surface protein combination No. 18, binary code proteins 1-18: 100000000000011000, untreated V1: 0.4)
0.2 1/1OOO: V2 no. of cells In 1/1OOO (protein code No. 151, proteins 1-18 binary 011000001101001000) | V2 no. of cells In 1/1OOO (protein code No. 152, proteins 1-18 binary 010000011101001000) | V2 no. of cells In 1/1OOO (protein code No. 153, proteins 1-18 binary 001100010111011100) | V2 no. of cells In 1/1OOO (protein code No. 154, proteins 1-18 binary 000000001000001000) | V2 no. of cells In 1/1OOO (protein code No. 162 (second line so numbered, r189), proteins 1-18 binary 010000001100011000) | V2 no. of cells In 1/1OOO (protein code No. 166, proteins 1-18 binary 111100111111011100) | V2 no. of cells In 1/1OOO (protein code No. 167, proteins 1-18 binary 111100001100001100) | V2 no. of cells In 1/1OOO (protein code No. 168, proteins 1-18 binary 011000011100000000) | V2 no. of cells In 1/1OOO (protein code No. 169, proteins 1-18 binary 001100010000001000) | V2 no. of cells In 1/1OOO (protein code No. 170, proteins 1-18 binary 001100000001001000) | V2 no. of cells In 1/1OOO (protein code No. 171, proteins 1-18 binary 001000011000000000) | V2 no. of cells In 1/1OOO (protein code No. 172, proteins 1-18 binary 000000010001011000) | V2 no. of cells In 1/1OOO (protein code No. 180, proteins 1-18 binary 111100011111011000) | V2 no. of cells In 1/1OOO (protein code No. 181, proteins 1-18 binary 101100110101011000) | V2 no. of cells In 1/1OOO (protein code No. 183, proteins 1-18 binary 001100010100001000) | V2 no. of cells In 1/1OOO (protein code No. 184, proteins 1-18 binary 001000011011011000) | V2 no. of cells In 1/1OOO (protein code No. 185, proteins 1-18 binary 001000011011000000) | V2 no. of cells In 1/1OOO (protein code No. 186, proteins 1-18 binary 000000011011000000)
131: number of surface protein combinations occurring only in untreated Karpas cells, never found in actinonin-treated cells (Table 3, 18 proteins)
0.1 1/1OOO: V2 no. of cells In 1/1OOO (protein code No. 149, proteins 1-18 binary 000100010111001000) | V2 no. of cells In 1/1OOO (protein code No. 150, proteins 1-18 binary 000000010101011000) | V2 no. of cells In 1/1OOO (protein code No. 162, proteins 1-18 binary 011100011101011000) | V2 no. of cells In 1/1OOO (protein code No. 163, proteins 1-18 binary 011000011100011100) | V2 no. of cells In 1/1OOO (protein code No. 164, proteins 1-18 binary 010000001101001000) | V2 no. of cells In 1/1OOO (protein code No. 165, proteins 1-18 binary 001000010001001100) | V2 no. of cells In 1/1OOO (protein code No. 174, proteins 1-18 binary 111100001100011100) | V2 no. of cells In 1/1OOO (protein code No. 175, proteins 1-18 binary 101100011101011000) | V2 no. of cells In 1/1OOO (protein code No. 176, proteins 1-18 binary 101000010011001000) | V2 no. of cells In 1/1OOO (protein code No. 177, proteins 1-18 binary 100000000000001000) | V2 no. of cells In 1/1OOO (protein code No. 178, proteins 1-18 binary 000100010101011000) | V2 no. of cells In 1/1OOO (protein code No. 179, proteins 1-18 binary 000000001101001000) | V2 no. of cells In 1/1OOO (protein code No. 187, proteins 1-18 binary 111000001100001000) | V2 no. of cells In 1/1OOO (protein code No. 188, proteins 1-18 binary 101000110111011100) | V2 no. of cells In 1/1OOO (protein code No. 189, proteins 1-18 binary 011100011100001100) | V2 no. of cells In 1/1OOO (protein code No. 190, proteins 1-18 binary 011100011001001000) | V2 no. of cells In 1/1OOO (protein code No. 191, proteins 1-18 binary 010000001111001000) | V2 no. of cells In 1/1OOO (protein code No. 192, proteins 1-18 binary 001100011111011100) | V2 no. of cells In 1/1OOO (protein code No. 193, proteins 1-18 binary 001100010011000000) | V2 no. of cells In 1/1OOO (protein code No. 194, proteins 1-18 binary 001000110011011000) | V2 no. of cells In 1/1OOO (protein code No. 195, proteins 1-18 binary 001000010011001100) | V2 no. of cells In 1/1OOO (protein code No. 198 (first line so numbered, r203), proteins 1-18 binary 001000010010000000)
263: number of different surface protein combinations detected in the treated cells (18 of the 30 proteins examined, untreated cells: 334, overall 394)
